{"source": "patent US20240374763A1", "about": "“DIAGNOSIS AND MONITORING USING EXTRADOMAIN-B FIBRONECTIN TARGETED PROBES” (Case Western Reserve University, priority 2020, published 2024)", "key": {"Relaxivity measurements": {"experiment": "Relaxivity measurements", "assay_type": "physicochemical", "experimental": "The T1 and T2 values of MT218 and Gd(HP-DO3A) solutions were determined using a 3T MRS 3000 scanner (MR Solutions, Guildford, UK). Solutions of MT218 were prepared at concentrations of 0, 0.25, 0.5, 1, and 2 mM in DPBS buffer (Gibco, Gaithersburg, MD). T1 values were measured using an inversion recovery-fast low angle shot (IR-FLASH) sequence (i=10 ms, TE=4 ms, FA=8°, echoes/frames=128, FOV=40 mm×40 mm, slice thickness =2 mm, number of averages=1, time delay=4000 ms, sample period=200, matrix=256×128). T2 values were obtained using a multi-echo multi-slice (MEMS) sequence (TE=15 ms, […], echoes=10, FOV: 40 mm×40 mm, slice thickness=1 mm, number of averages=1, matrix=256×192). The r1 and r2 relaxivities were calculated from the slopes of 1/T1 and 1/T2 vs. Gd concentration plots, respectively."}, "[1]": {"test_system": "Capan-1 flank tumor xenografts", "experiment": "MRMI of Capan-1 flank tumor xenografts", "assay_type": "in vivo, mice", "experimental": "(§1) For flank xenograft models, 4×10^6 Capan-1 cells suspended in 100 μL of a 6 mg/mL Matrigel (Corning, Corning, NY) solution was injected subcutaneously into the flank of eight-week-old female nu/nu mice. The tumor bearing mice were imaged after tumor volumes exceeded 300 mm^3. For orthotopic intrapancreatic models, the pancreas of four-week-old female nu/nu mice were surgically exposed and 1×10^6 BxPC3-GFP-Luc or PANC-1-GFP-Luc cells suspended in 100 μL of an Matrigel solution (6 mg/mL) was injected into the pancreatic tissue. Prior to imaging, growth of tumor was verified by bioluminescence imaging with intraperitoneal injection of d-luciferin on IVIS Spectrum system (Perkin Elmer, Waltham, MA).\nFlank tumor-bearing mice were anesthetized and a tail vein catheter inserted. MR image acquisition was performed on a 7T Biospin (Bruker, Billerica, MA) preclinical small animal scanner with a volume radiofrequency coil. Axial images were obtained using a multi-spin multi-echo (MSME) MRI sequence (500 ms TR, 8.1 ms TE, 900 FA, 4.50 cm×4.50 cm FOV, 1.50 mm slice thickness, 16 slices, 2 averages, 200×200 matrix, 0.0225×0.0225 cm/pixel resolution). Contrast agents were injected at a dose of 0.1 mmol/kg (100 μL) via the tail vein catheter, followed by a saline flush. Images of the tumors were acquired before contrast and at various time points after contrast administration. Gd(HP-DO3A) was used as a control.\nImage files were exported and analyzed in Horus software. ROIs were drawn in the tumor, liver, kidney, and muscle. Muscle ROIs were taken from muscle, with other structures (liver, kidney, tumor) identified after comparison with published images and comparison with anatomical landmarks or bioluminescent imaging. Size of ROIs drawn for image analysis are summarized in Supplemental Table S1. The contrast-to-noise ratio of the tumor (CNR) was calculated using the following equation, where σ_noise is the standard deviation of intensities from an ROI drawn outside of the mouse body: […]"}, "[2]": {"test_system": "PANC-1-GFP-Luc intrapancreatic tumor xenografts", "experiment": "MRMI of PANC-1-GFP-Luc intrapancreatic tumor xenografts", "assay_type": "in vivo, mice", "experimental": "as §1\nMice bearing intrapancreatic tumors were anesthetized and a tail vein catheter was inserted. Image acquisition was performed on a MR Solutions 3T MRS 3000 scanner with a mouse radiofrequency coil. Axial images were obtained using a Fast Spin Echo (FSE) MRI sequence (305 ms TR, 11 ms TE, 90° F.A, 4 cm×4 cm FOV, 1 mm slice thickness, 10 slices, echo train length=4, echo spacing=11 ms, 4 averages, 256×256 matrix, […] cm/pixel resolution) with respiratory gating. Images were acquired before contrast and at different time points after contrast injection at a dose of 0.1 mmol/kg (100 μL). For competitive binding experiments, a 5:1 molar ratio of free ZD2 peptide to MT218 was injected in mice bearing intrapancreatic BxPC3 tumor xenografts (n=3) at a dose of 0.1 mmol MT218/kg (100 μL). Images obtained on the MR Solutions 3T scanner were normalized using the Surscalereader.exe (MR Solutions, Guildford, UK) program supplied.\nImage files were exported and analyzed in Horus software. ROIs were drawn in the tumor, liver, kidney, and muscle. […] The contrast-to-noise ratio of the tumor (CNR) was calculated using the following equation, where σ_noise is the standard deviation of intensities from an ROI drawn outside of the mouse body: […]"}, "Hs578T tumors": {"test_system": "Hs578T tumors", "experiment": "MRMI-mediated monitoring of therapeutic response, Hs578T tumors", "assay_type": "in vivo, mice", "settings": "pretreatment Hs578T tumors, MT218 0.1 mmol/kg, first 30 min", "experimental": "The targeted MRI contrast agent ZD2-N3-Gd(HP-DO3A) (MT218) was provided by Molecular Theranostics (Cleveland, OH) and was synthesized. MR images of the mice bearing MDA-MB-231 or Hs578T tumors were acquired on a 3T MRS 3000 scanner (MRS Solutions, Surrey, UK) with a mouse short quad coil. T1-weighted images were acquired following intravenous injection of MT218 at dose of 0.1 mmol/kg using a fast spin echo (FSE) axial sequence with respiratory gating (TR=305 ms, TE=11 ms, FA=90°, FOV=40×40 mm, slice thickness=1 mm, slice number=15, Nav=2, matrix=256×256). Images were acquired before and at 10, 20, and 30 min after injection of MT218. MRMI was performed before the treatment and then at week 6 post-nanoparticle treatments for MDA-MB-231 and Hs578T tumors. MRI data and image processing was conducted using FIJI (FIJI is just ImageJ) software. The contrast-to-noise ratios (CNRs) of tumors were calculated as the difference of the mean tumor intensity and the mean muscle intensity divided by the standard deviation of the noise."}}, "note": "No end group written: not given here.", "data": [{"substance": "ZD2-N3-Gd(HP-DO3A) (TVRTSAD; also: conjugated to Gd(HP-DO3A) by click reaction of alkynyl-ZD2 with N3-Gd(HP-DO3A), residue of attachment not given here, Gd complex) [MT218, EDB-FN-targeted MRI contrast agent; ZD2 peptide conjugated to the clinical macrocyclic agent Gd(HP-DO3A)]", "values": [{"measurement": "T1 relaxivity", "setting": "Relaxivity measurements; at 3T (Example 1)", "value": 6.13, "unit": "mM⁻¹ s⁻¹"}, {"measurement": "T1 relaxivity", "setting": "Relaxivity measurements; at 3 T, DPBS buffer", "value": "6.07 ± 1.13", "unit": "mM⁻¹ s⁻¹"}, {"measurement": "T2 relaxivity", "setting": "Relaxivity measurements; at 3 T, DPBS buffer", "value": "8.20 ± 0.18", "unit": "s⁻¹ mM⁻¹"}, {"measurement": "increase of contrast to noise ratio (CNR)", "setting": "[1]; 0.1 mmol/kg, MT218 at 15 minutes post-injection, maintained at least 35 minutes, Gd(HP-DO3A) for the duration of the experiment", "value": 4.84, "unit": "fold"}, {"measurement": "CNR compared to the clinical agent Gd(HP-DO3A)", "setting": "[1]; Capan-1 flank", "value": "273 % CNR of control"}, {"measurement": "intratumoral CNR increase", "setting": "[2]; 0.1 mmol/kg, 10 min postinjection", "value": "approximately 3.85 fold"}, {"measurement": "CNR compared to the clinical agent Gd(HP-DO3A)", "setting": "[2]; PANC-1-GFP-Luc intrapancreatic", "value": "164 % CNR of control"}, {"measurement": "signal enhancement vs pre-contrast", "setting": "Hs578T tumors", "value": "Strong signal enhancement"}]}]}
